Literature values in patent publication US11291679B1, “Injectable, infusable, instillable ivermectin adjuvant for cancer therapies” (MOUNTAIN VALLEY MD INC., priority 2021, dated 2022).

What was measured:
[1] = test system: breast tumors

Compound	variability of cmax in blood plasma levels (blood plasma)	variation across the concentrations in the tumor environment (tumor environment)	immunogenic cancer cell death and T cell infiltration [1]	efficacy in vivo (limiting tumor growth) ([1]; single agent or combination, synergy p=0.03)
CCC(C)n1ncn(-c2ccc(N3CCN(c4ccc(OCC5COC(Cn6cncn6)(c6ccc(Cl)cc6Cl)O5)cc4)CC3)cc2)c1=O (stereo not shown) [itraconazole]	4-5 fold	~15 fold		
ivermectin			induces immunogenic cancer cell death (ICD) and robust T cell infiltration into breast tumors	neither agent alone showed efficacy in vivo
